These results are taken from ChEMBL document CHEMBL5104092, “An insight into the recent development of the clinical candidates for the treatment of malaria and their target proteins” (Eur J Med Chem, 2021).

Values after ≈ are worked out from the molar mass of the structure shown. Where only a bound is given, the exact number is not on record here.

The subject of one series is HepG2. Briefly: Cytotoxicity against human HepG2 cells. It is filed as functional, cell-based.
Another series deals with Plasmodium yoelii. Kind of series: In vivo antimalarial activity against Plasmodium yoelii infected in mouse. Format: functional.
Series [1] deals with Plasmodium falciparum. Briefly: Antimalarial activity against Plasmodium falciparum Dd2. Format: functional, organism-based.
The subject of series [2] is Plasmodium falciparum. Briefly: Antimalarial activity against multidrug resistant Plasmodium falciparum Dd2 incubated for 72 hrs by malaria SYBR green I nucleic acid staining dye based fluorescence assay. It is filed as functional, organism-based. Particulars: Dd2, 72 h.
A short description of series [3]: Inhibition of Plasmodium falciparum recombinant DHODH incubated for 5 mins by microplate reader method.
Series [4] is described as follows: Inhibition of Plasmodium falciparum DHODH.
Series [5] deals with Plasmodium falciparum. Kind of series: Antimalarial activity against Plasmodium falciparum assessed as increase in parasite swelling diameter at ring stage after 2 hrs by time-lapse live cell imaging (reference value: […]). Format: functional.
Series [6] concerns Plasmodium falciparum. Kind of series: Antimalarial activity against chloroquine sensitive Plasmodium falciparum 3D7 incubated for 72 hrs by malaria SYBR green I nucleic acid staining dye based fluorescence assay. It is filed as functional, organism-based. Particulars: 3D7, 72 h.
Series [7] relates to Plasmodium falciparum. Kind of series: Antimalarial activity against chloroquine resistant Plasmodium falciparum K1 incubated for 72 hrs by malaria SYBR green I nucleic acid staining dye based fluorescence assay. Format: functional, organism-based. Particulars: K1, 72 h.
Series [8] relates to Plasmodium falciparum. Kind of series: Antimalarial activity against chloroquine-sensitive Plasmodium falciparum 3D7 by Giemsa staining method. It is filed as functional, organism-based.
In another series the test system is Plasmodium berghei. Kind of series: In vivo antimalarial activity against Plasmodium berghei infected in mouse model. It is filed as functional.
For series [9], the target named is Voltage-gated inwardly rectifying potassium channel KCNH2 (Homo sapiens, UniProt Q12809). Kind of series: Inhibition of human ERG. It is filed as toxicity.
Voltage-gated inwardly rectifying potassium channel KCNH2, sequence (Q12809 whole entry): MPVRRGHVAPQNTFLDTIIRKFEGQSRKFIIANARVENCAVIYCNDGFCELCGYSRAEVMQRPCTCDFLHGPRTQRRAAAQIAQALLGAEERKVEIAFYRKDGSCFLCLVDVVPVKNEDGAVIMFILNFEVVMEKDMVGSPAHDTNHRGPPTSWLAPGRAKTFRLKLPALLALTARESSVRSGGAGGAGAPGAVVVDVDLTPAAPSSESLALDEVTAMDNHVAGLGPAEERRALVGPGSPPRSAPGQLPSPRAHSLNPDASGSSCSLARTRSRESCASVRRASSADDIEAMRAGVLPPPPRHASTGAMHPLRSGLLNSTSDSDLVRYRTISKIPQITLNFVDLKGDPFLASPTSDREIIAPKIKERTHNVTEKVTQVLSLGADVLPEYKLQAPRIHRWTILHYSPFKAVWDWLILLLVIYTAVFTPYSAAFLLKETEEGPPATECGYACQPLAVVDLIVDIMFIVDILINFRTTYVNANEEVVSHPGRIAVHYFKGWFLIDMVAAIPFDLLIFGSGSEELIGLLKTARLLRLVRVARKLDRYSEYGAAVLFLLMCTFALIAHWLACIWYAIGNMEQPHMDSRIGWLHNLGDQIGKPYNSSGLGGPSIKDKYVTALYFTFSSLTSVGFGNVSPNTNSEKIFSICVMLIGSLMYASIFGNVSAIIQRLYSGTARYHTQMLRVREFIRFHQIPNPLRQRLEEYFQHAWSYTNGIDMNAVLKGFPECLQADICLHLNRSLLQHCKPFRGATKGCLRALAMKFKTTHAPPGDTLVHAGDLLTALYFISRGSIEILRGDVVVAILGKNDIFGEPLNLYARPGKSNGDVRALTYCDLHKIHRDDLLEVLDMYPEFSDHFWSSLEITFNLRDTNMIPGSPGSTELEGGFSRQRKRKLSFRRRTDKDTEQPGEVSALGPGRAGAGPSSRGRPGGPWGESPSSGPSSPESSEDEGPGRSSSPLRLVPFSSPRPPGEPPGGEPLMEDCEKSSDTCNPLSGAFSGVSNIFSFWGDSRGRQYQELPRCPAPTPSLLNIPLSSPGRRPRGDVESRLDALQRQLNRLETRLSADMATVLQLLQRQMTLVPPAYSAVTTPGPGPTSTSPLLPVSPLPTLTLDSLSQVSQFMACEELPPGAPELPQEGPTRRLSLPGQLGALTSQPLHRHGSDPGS
The nature of series [10]: Dissociation constant, pKa of compound. It is filed as physicochemical.
The target in the next series is CYP450 (Homo sapiens, UniProt P04798+P05177+P05181+P08684+P10632+P10635+P11509+P11712+P13584+P20813+P20815+P20853+P24462+P24903+P33260+P33261+P51589+P78329+P98187+Q02928+Q08477+Q16678+Q16696+Q5TCH4+Q6VVX0+Q7Z449+Q8TAV3+Q96SQ9+Q9HB55). Briefly: Inhibition of CYP450 (unknown origin). It is filed as ADME, protein assay.
A short description of series [11]: Binding affinity to Plasmodium falciparum quadruple mutant DHFR assessed as inhibition constant.
Series [12] relates to Plasmodium falciparum. Kind of series: Antimalarial activity against Plasmodium falciparum K1. It is filed as functional, organism-based.
The test system of series [13] is Plasmodium falciparum. Briefly: Antimalarial activity against Plasmodium falciparum NF54. Format: functional, organism-based.
The subject of series [14] is Plasmodium falciparum. Kind of series: In vivo antimalarial activity against Plasmodium falciparum infected in SCID mouse. Format: functional.
A short description of series [15]: Inhibition of Plasmodium flaciparum 3D7_2 membrane recombinant ATP4 expressed in Escherichia coli BL21 (DE3) cells. The arrangement: species or system Plasmodium falciparum.
A short description of series [16]: Selectivity ratio of IC50 for Plasmodium falciparum B7 membrane recombinant Na+ dependent ATPase activity to IC50 for Plasmodium falciparum 3D7_2 membrane recombinant Na+ dependent ATPase activity.
A short description of series [17]: Inhibition of Plasmodium flaciparum B7 membrane recombinant ATP4 expressed in Escherichia coli BL21 (DE3) cells. Details: species or system Plasmodium falciparum.
Series [18] concerns Plasmodium falciparum. Briefly: Antimalarial activity against chloroquine resistant Plasmodium falciparum Dd2 incubated for 48 hrs by SYBR green I fluorescence based assay. It is filed as functional, organism-based. The following applies: Dd2, 48 h.
Series [19] relates to Plasmodium falciparum. Kind of series: Antimalarial activity against chloroquine resistant Plasmodium falciparum K1 incubated for 48 hrs by SYBR green I fluorescence based assay. It is filed as functional, organism-based. Particulars: K1, 48 h.
Series [20] deals with Plasmodium falciparum. Kind of series: Antimalarial activity against chloroquine resistant Plasmodium falciparum W2 incubated for 48 hrs by SYBR green I fluorescence based assay. Format: functional, organism-based. The following applies: W2, 48 h.
Series [21] deals with Plasmodium falciparum. Kind of series: Antimalarial activity against chloroquine sensitive Plasmodium falciparum NF54 incubated for 48 hrs by SYBR green I fluorescence based assay. The following applies: NF54, 48 h. Format: functional, organism-based.
The subject of series [22] is Plasmodium falciparum. Kind of series: Antiplasmodial activity against chloroquine sensitive Plasmodium falciparum NF54 by parasite lactate dehydrogenase assay. Format: functional, organism-based.
A short description of series [23]: Inhibition of Plasmodium vivax PI4K.
Series [24] in a line: Drug elimination in human urine assessed as unchanged fraction. Format: ADME. Particulars: read-out: Drug excretion.

In the series on HepG2, `COc1cc2[nH]c(C)c(-c3ccc(Oc4ccc(OC(F)(F)F)cc4)cc3)c(=O)c2cc1Cl` showed a half-maximal inhibitory concentration (IC50) of more than 10000 nM. For the same molecule, the ED90 with Plasmodium yoelii is 0.02 mg/kg. Moreover, the EC50 in the series on Plasmodium falciparum [1] came out at 2.5 nM.

In the series with Plasmodium falciparum [2], `CCN(CC)CCCC(C)Nc1ccnc2cc(Cl)ccc12` (stereo unspecified) [CHLOROQUINE] gave an EC50 of 165 nM.

As for `c1c2c(cc3c1OCO3)-c1cc3ccc4c(c3c[n+]1CC2)OCO4` [COPTISINE], the IC50 in [3] was 1830 nM.

As for `NN1CN(c2ccc3ccccc3c2)C2=C(C(=O)CO2)C1=O`, 23 nM corresponded to half-maximal inhibition in [4] (IC50).

For `CC(C)c1nc2ccccc2n1CC(=O)Nc1c(-c2ccc(Cl)cc2F)c(C(F)(F)F)nn1C`, the Activity with Plasmodium falciparum [5] turned out to be 4.6 µm.

Take `CC1CCCN(C[C@H](C)Nc2ccnc3cc(Cl)ccc23)C1` (stereo partly specified): the values for the IC50 with Plasmodium falciparum [6] and with Plasmodium falciparum [7] were 14 nM and 21 nM, respectively.

For `CNNc1nc(NNC)nc(Nc2nc(-c3ccc(Cl)cc3Cl)cs2)n1`, in the series with Plasmodium falciparum [8], it took 10 µg/mL (≈ 24.3 µM) to reach half-maximal inhibition (IC50).

Turning to `CC1(C)c2nc(-c3ccc(F)cc3)c(Nc3ccc(F)cc3)n2CCN1C(=O)CN` [GANAPLACIDE], the ED99 in the series on Plasmodium berghei came to 2.2 mg/kg. For the same molecule, the IC50 was 13400 nM in series [9] and more than 6000 nM at CYP450. The molecule further yielded a pKa in series [10] of 7.3.

Regarding `CCc1nc(N)nc(N)c1OCCCOc1ccccc1CCC(=O)O`, the Ki in series [11] amounted to 0.54 nM. Also, the pKa in series [10] came to 4.5.

Consider `FC1CCN(CCOc2ccc(C3CCC4(CC3)OOC3(OO4)C4CC5CC(C4)CC3C5)cc2)CC1` (stereo unspecified), for which the IC50 with Plasmodium falciparum [12] was 4.2 nM; with Plasmodium falciparum [13], 5.2 nM; against CYP450, more than 20000 nM. In series [10], this molecule showed a pKa of 8.4. The same molecule showed an ED90 in the series with Plasmodium falciparum [14] of 11 mg/kg.

For the molecule `CCC(CC)Nc1nc(C)c(C#N)c2ccccc12`, the results for the IC50 in series [15] and in series [17] were 70 nM and 429 nM, respectively. Further, the Ratio IC50 in series [16] was 6.

`Cc1nc(Nc2ncc(N3CCN(C)[C@H](C)C3)c(Nc3cc(C)n(C)n3)n2)cc(C2CC2)c1F` [SUTIDIAZINE]: the 50% inhibitory concentration (IC50) stood at 15 nM in the series on Plasmodium falciparum [12] and 9 nM with Plasmodium falciparum [13]. In addition, the pKa in series [10] amounted to 8.4.

Consider `C[C@H]1[C@H](Nc2ccc(F)cc2)O[C@@H]2O[C@]3(C)CC[C@H]4[C@H](C)CC[C@@H]1[C@@]24OO3`, for which the IC50 with Plasmodium falciparum [18] was determined as 11.1 nM; with Plasmodium falciparum [19], 0.6 nM; in the series with Plasmodium falciparum [20] it was 3 nM; in the series with Plasmodium falciparum [21], 1.3 nM.

In the case of `C[C@H]1[C@H](N2CCNCC2)O[C@@H]2O[C@]3(C)CC[C@H]4[C@H](C)CC[C@@H]1[C@@]24OO3`, the IC50 is 1.7 nM in the series on Plasmodium falciparum [18], 1.9 nM with Plasmodium falciparum [19], 1.4 nM in the series on Plasmodium falciparum [20] and 3.1 nM in the series with Plasmodium falciparum [21].

`CCOC(=O)C(=CNc1cccc(N(C)C)c1)C(=O)OCC` registered an IC50 with Plasmodium falciparum [22] of 26000 nM.

As for `CC(=O)N1CCN(c2ccc(CN(C(=O)/C=C/c3ccc(C(C)(C)C)cc3)[C@@H](Cc3ccccc3)C(=O)N3CCN(Cc4ccc(C#N)cc4)CC3)cc2)CC1`, the IC50 was determined as 0.3 nM in the series with Plasmodium falciparum [12] and 0.4 nM with Plasmodium falciparum [13]. Besides, the pKa in series [10] was 6.8. Further, the ED90 in the series on Plasmodium falciparum [14] was 3.7 mg/kg.

For the molecule `c1cc([C@H]2CC[C@]3(CC2)OO[C@]2(O3)C3CC4CC(C3)CC2C4)ccc1OCCN1CCOCC1` [ARTEFENOMEL], the results for the IC50 in the series on Plasmodium falciparum [12] and in the series on Plasmodium falciparum [13] were 3.8 nM and 4.6 nM, respectively. This molecule also returned a pKa in [10] of 7.

Molecule `CS(=O)(=O)c1ccc(-c2cnc(N)c(-c3ccc(C(F)(F)F)nc3)c2)cc1` [MMV-048] registered an IC50 in series [23] of 3.4 nM. Besides, the ED90 with Plasmodium falciparum [14] stood at 0.57 mg/kg.

As to `CCN(CC)CCCC(C)Nc1cc(OC)cc2cccnc12` (stereo unspecified) [PAMAQUINE], in series [24], the dose excreted is less than 1%.
